Measurements published in ChEMBL document CHEMBL3091312, “Characterization and anti-inflammatory effects of iodinated acetylenic acids isolated from the marine sponges Suberites mammilaris and Suberites japonicus” (J Nat Prod, 2013).
Calls of active or inactive are those of the source. The rule behind the calls is not given here.

What was measured:
Format in all cases: functional, cell-based
RAW264.7 [1] = test: Antiinflammatory activity against mouse RAW264.7 cells assessed as inhibition of LPS-induced PGE2 production at 5 to 10 uM preincubated for 1 hr followed by LPS addition measured after 24 hrs by ELISA
RAW264.7 [2] = test: Antiinflammatory activity against mouse RAW264.7 cells assessed as effect on PGE2 level at 5 to 10 uM after 24 hrs by ELISA relative to control
[3] = Antiinflammatory activity against mouse BV2 cells assessed as inhibition of LPS-induced NO production preincubated for 1 hr followed by LPS addition measured after 24 hrs by Griess method; conditions: BV-2
BV-2 [4] = test: Antiinflammatory activity against mouse BV2 cells assessed as effect on PGE2 level at 5 to 10 uM after 24 hrs by ELISA relative to control
RAW264.7 [5] = test: Antiinflammatory activity against mouse RAW264.7 cells assessed as inhibition of LPS-induced NO production preincubated for 1 hr followed by LPS addition measured after 24 hrs by Griess method
BV-2 [6] = test: Antiinflammatory activity against mouse BV2 cells assessed as inhibition of LPS-induced PGE2 production at 5 to 10 uM preincubated for 1 hr followed by LPS addition measured after 24 hrs by ELISA

| IC50 [3] [µM] | IC50 (RAW264.7 [5]) [µM] | Compound | inhibition (RAW264.7 [1]) | Activity (RAW264.7 [2]) | Activity (BV-2 [4]) | inhibition (RAW264.7 [5]) | inhibition (BV-2 [6]) |
| --- | --- | --- | --- | --- | --- | --- | --- |
| 23.3 | 3.9 | C=C/C=C/C/C(I)=C\CC#CC/C=C\C/C(I)=C\CCCC(=O)OC | Active | inactive | inactive |  |  |
| 18 | 7 | C/C=C/CC/C(I)=C\CC#CC/C=C\C/C(I)=C\CCCC(=O)OC | Active | inactive | inactive |  |  |
| 1.8 |  | CCCCC/C=C\CC#CC/C=C\C/C(I)=C\CCCC(=O)OC |  | inactive | inactive | inactive | Active |
| 3.1 | 53.6 | C=CCCC/C=C\CC#CC/C=C\C/C(I)=C\CCCC(=O)OC |  | inactive | inactive |  | Active |
